Reference: US20220167618A1, “PESTICIDALLY ACTIVE AZOLE-AMIDE COMPOUNDS” (SYNGENTA CROP PROTECTION AG, priority 2019, published 2022)

What was measured:
[1] = test system: Plutella xylostella (Diamond Back Moth); test: Example B5: Plutella xylostella (diamond back moth), artificial diet, 24-well; format: in vivo; conditions: 192 h, application rate 200 ppm, eggs, 8 days after infestation, read-out: control in at least one of the two categories (mortality or growth inhibition)
Procedure: Example B5: Plutella xylostella (Diamond Back Moth)
24-well microtiter plates with artificial diet were treated with aqueous test solutions prepared from 10′000 ppm DMSO stock solutions by pipetting. After drying, Plutella eggs were pipetted through a plastic stencil onto a gel blotting paper and the plate was closed with it. The samples were assessed for mortality and growth inhibition in comparison to untreated samples 8 days after infestation.

[2] = test system: Spodoptera littoralis (Egyptian Cotton Leaf Worm); test: Example B9: Spodoptera littoralis (Egyptian cotton leaf worm), sprayed cotton leaf discs; format: in vivo; conditions: foliar, 72 h, application rate 200 ppm, L1 larvae, 3 days after infestation, read-out: control in at least one of the three categories (mortality, anto-feedant or growth inhibition)
[3] = test system: Chilo suppressalis (Striped Rice Stemborer); test: Example B4: Chilo suppressalis (striped rice stemborer), artificial diet; format: in vivo; conditions: 144 h, application rate 200 ppm, L2 larvae, 6 days after infestation, read-out: control in at least one of the three categories (mortality, anti-feedant or growth inhibition)
Procedure: Example B4: Chilo suppressalis (Striped Rice Stemborer)
24-well microtiter plates with artificial diet were treated with aqueous test solutions prepared from 10′000 ppm DMSO stock solutions by pipetting. After drying, the plates were infested with L2 larvae (6-8 per well). The samples were assessed for mortality, anti-feeding effect, and growth inhibition in comparison to untreated samples 6 days after infestation. Control of Chilo suppressalis by a test sample is given when at least one of the categories mortality, anti-feedant effect, and growth inhibition is higher than the untreated sample.

[4] = test system: Plutella xylostella (Diamondback Moth); test: Example B13: Plutella xylostella (diamondback moth), artificial diet, 96-well; format: in vivo; conditions: 216 h, application rate 500 ppm, eggs/L1 larvae, 9 days after infestation
Procedure: Example B13: Plutella xylostella (Diamondback Moth)
96-well microtiter plates containing artificial diet were treated with aqueous test solutions, prepared from 10′000 ppm DMSO stock solutions, by a liquid handling robot. After drying, eggs (˜30 per well) were infested onto a netted lid which was suspended above the diet. The eggs hatch and L1 larvae move down to the diet. The samples were assessed for mortality 9 days after infestation.

[5] = test system: Diabrotica balteata (Corn Root Worm); test: Example B1: Diabrotica balteata (corn root worm), sprayed maize sprouts; format: in vivo; conditions: 96 h, application rate 200 ppm, L2 larvae, 4 days after infestation, read-out: control in at least one of the two categories (mortality or growth inhibition)
Procedure: Example B1: Diabrotica balteata (Corn Root Worm)
Maize sprouts placed onto an agar layer in 24-well microtiter plates were treated with aqueous test solutions prepared from 10′000 ppm DMSO stock solutions by spraying. After drying, the plates were infested with L2 larvae (6 to 10 per well). The samples were assessed for mortality and growth inhibition in comparison to untreated samples 4 days after infestation.

CC(NC(=O)c1cc(C2CC2(F)F)cc(C(F)(F)F)c1)c1nc(Br)nn1-c1ccc(OCC(F)F)cn1 (stereo not shown) [Compound P22, N-[1-[5-bromo-2-[5-(2,2-difluoroethoxy)-2-pyridyl]-1,2,4-triazol-3-yl]ethyl]-3-(2,2-difluorocyclopropyl)-5-(trifluoromethyl)benzamide]
≥ 80%: percent control (mortality or growth inhibition) at 200 ppm [1] | percent control (mortality, anti-feedant or growth inhibition) at 200 ppm [2] | percent control (mortality, anti-feedant or growth inhibition) at 200 ppm [3] | mortality at 500 ppm [4]

CC(NC(=O)c1cc(C(F)(F)F)nc(C2(C#N)CC2)c1)c1nc(Br)nn1-c1ncc(OCC(F)(F)F)cn1 (stereo not shown) [Compound P34, N-[1-[5-bromo-2-[5-(2,2,2-trifluoroethoxy)pyrimidin-2-yl]-1,2,4-triazol-3-yl]ethyl]-2-(1-cyanocyclopropyl)-6-(trifluoromethyl)pyridine-4-carboxamide]
157 to 159 °C: melting point

CC(NC(=O)c1cc(C2CC2(F)F)cc(C(F)(F)F)c1)c1nc(Br)nn1-c1ncc(OC(F)F)cn1 (stereo not shown) [Compound P12, N-[1-[5-bromo-2-[5-(difluoromethoxy)pyrimidin-2-yl]-1,2,4-triazol-3-yl]ethyl]-3-(2,2-difluorocyclopropyl)-5-(trifluoromethyl)benzamide]
≥ 80%: percent control (mortality or growth inhibition) at 200 ppm [1] | percent control (mortality or growth inhibition) at 200 ppm [5] | percent control (mortality, anti-feedant or growth inhibition) at 200 ppm [2] | percent control (mortality, anti-feedant or growth inhibition) at 200 ppm [3] | mortality at 500 ppm [4]

CC(NC(=O)c1cc(C2CC2)cc(C(F)(F)F)c1)c1nc(Br)nn1-c1ncc(OCC(F)(F)F)cn1 (stereo not shown) [Compound P5, N-[1-[5-bromo-2-[5-(2,2,2-trifluoroethoxy)pyrimidin-2-yl]-1,2,4-triazol-3-yl]ethyl]-3-cyclopropyl-5-(trifluoromethyl)benzamide]
≥ 80%: percent control (mortality or growth inhibition) at 200 ppm [1] | percent control (mortality or growth inhibition) at 200 ppm [5] | percent control (mortality, anti-feedant or growth inhibition) at 200 ppm [2] | percent control (mortality, anti-feedant or growth inhibition) at 200 ppm [3] | mortality at 500 ppm [4]

CC(NC(=O)c1cc(C2CC2(F)F)cc(C(F)(F)F)c1)c1nc(Br)nn1-c1ncc(OCC(F)F)cn1 (stereo not shown) [Compound P8, N-[1-[5-bromo-2-[5-(2,2-difluoroethoxy)pyrimidin-2-yl]-1,2,4-triazol-3-yl]ethyl]-3-(2,2-difluorocyclopropyl)-5-(trifluoromethyl)benzamide]
≥ 80%: percent control (mortality or growth inhibition) at 200 ppm [1] | percent control (mortality or growth inhibition) at 200 ppm [5] | percent control (mortality, anti-feedant or growth inhibition) at 200 ppm [2] | percent control (mortality, anti-feedant or growth inhibition) at 200 ppm [3] | mortality at 500 ppm [4]

CC(NC(=O)c1cc(C(F)(F)F)nc(C2(C#N)CC2)c1)c1nc(Br)nn1-c1ccc(OCC(F)F)cn1 (stereo not shown) [Compound P32, N-[1-[5-bromo-2-[5-(2,2-difluoroethoxy)-2-pyridyl]-1,2,4-triazol-3-yl]ethyl]-2-(1-cyanocyclopropyl)-6-(trifluoromethyl)pyridine-4-carboxamide]
147 to 149 °C: melting point

CC(NC(=O)c1cc(C2CC2)cc(C(F)(F)F)c1)c1nc(Br)nn1-c1ccc(OCC(F)F)cn1 (stereo not shown) [Compound P27, N-[1-[5-bromo-2-[5-(2,2-difluoroethoxy)-2-pyridyl]-1,2,4-triazol-3-yl]ethyl]-3-cyclopropyl-5-(trifluoromethyl)benzamide]
≥ 80%: percent control (mortality or growth inhibition) at 200 ppm [1] | percent control (mortality, anti-feedant or growth inhibition) at 200 ppm [3] | mortality at 500 ppm [4]

CC(NC(=O)c1cc(C(F)(F)F)cc(S(=O)(=O)C(F)(F)F)c1)c1nc(Br)nn1-c1ncc(OCC(F)F)cn1 (stereo not shown) [Compound P24, N-[1-[5-bromo-2-[5-(2,2-difluoroethoxy)pyrimidin-2-yl]-1,2,4-triazol-3-yl]ethyl]-3-(trifluoromethyl)-5-(trifluoromethylsulfonyl) benzamide]
≥ 80%: percent control (mortality or growth inhibition) at 200 ppm [1] | percent control (mortality, anti-feedant or growth inhibition) at 200 ppm [2] | percent control (mortality, anti-feedant or growth inhibition) at 200 ppm [3] | mortality at 500 ppm [4]

CC(NC(=O)c1cc(C2CC2)cc(C(F)(F)F)c1)c1nc(Br)nn1-c1ncc(OCC(F)F)cn1 (stereo not shown) [Compound P18, N-[1-[5-bromo-2-[5-(2,2-difluoroethoxy)pyrimidin-2-yl]-1,2,4-triazol-3-yl]ethyl]-3-cyclopropyl-5-(trifluoromethyl)benzamide]
≥ 80%: percent control (mortality or growth inhibition) at 200 ppm [1] | percent control (mortality or growth inhibition) at 200 ppm [5] | percent control (mortality, anti-feedant or growth inhibition) at 200 ppm [2] | percent control (mortality, anti-feedant or growth inhibition) at 200 ppm [3] | mortality at 500 ppm [4]

CC(NC(=O)c1cc(C(F)(F)F)nc(C2(C#N)CC2)c1)c1nc(Br)nn1-c1ccc(OCC(F)(F)F)cn1 (stereo not shown) [Compound P33, N-[1-[5-bromo-2-[5-(2,2,2-trifluoroethoxy)-2-pyridyl]-1,2,4-triazol-3-yl]ethyl]-2-(1-cyanocyclopropyl)-6-(trifluoromethyl)pyridine-4-carboxamide]
82 to 84 °C: melting point

CC(NC(=O)c1cc(C(F)(F)F)cc(C(C)(C)C#N)c1)c1nc(Br)nn1-c1ccc(OCC(F)F)cn1 (stereo not shown) [Compound P40, N-[1-[5-bromo-2-[5-(2,2-difluoroethoxy)-2-pyridyl]-1,2,4-triazol-3-yl]ethyl]-3-(1-cyano-1-methyl-ethyl)-5-(trifluoromethyl)benzamide]
≥ 80%: percent control (mortality or growth inhibition) at 200 ppm [1] | percent control (mortality, anti-feedant or growth inhibition) at 200 ppm [2] | percent control (mortality, anti-feedant or growth inhibition) at 200 ppm [3] | mortality at 500 ppm [4]

CC(NC(=O)c1cc(C2CC2(F)F)cc(C(F)(F)F)c1)c1nc(Br)nn1-c1ccc(C#N)cn1 (stereo not shown) [Compound P6, N-[1-[5-bromo-2-(5-cyano-2-pyridyl)-1,2,4-triazol-3-yl]ethyl]-3-(2,2-difluorocyclopropyl)-5-(trifluoromethyl)benzamide]
≥ 80%: percent control (mortality or growth inhibition) at 200 ppm [1] | percent control (mortality or growth inhibition) at 200 ppm [5] | percent control (mortality, anti-feedant or growth inhibition) at 200 ppm [2] | percent control (mortality, anti-feedant or growth inhibition) at 200 ppm [3] | mortality at 500 ppm [4]

CC(NC(=O)c1cc(C(F)(F)F)nc(C2(C#N)CC2)c1)c1nc(Br)nn1-c1ccc(OC(F)F)cn1 (stereo not shown) [Compound P30, N-[1-[5-bromo-2-[5-(difluoromethoxy)-2-pyridyl]-1,2,4-triazol-3-yl]ethyl]-2-(1-cyanocyclopropyl)-6-(trifluoromethyl)pyridine-4-carboxamide]
152 to 154 °C: melting point

CC(NC(=O)c1cc(C(F)(F)F)cc(C(F)(F)C2CC2)c1)c1nc(Br)nn1-c1ccc(OCC(F)F)cn1 (stereo not shown) [Compound P31, N-[1-[5-bromo-2-[5-(2,2-difluoroethoxy)-2-pyridyl]-1,2,4-triazol-3-yl]ethyl]-3-[cyclopropyl(difluoro)methyl]-5-(trifluoromethyl)benzamide]
140 to 142 °C: melting point

CC(NC(=O)c1cc(C(F)(F)F)nc(C2(C#N)CC2)c1)c1nc(Br)nn1-c1ccc(C#N)cn1 (stereo not shown) [Compound P2, N-[1-[5-bromo-2-(5-cyano-2-pyridyl)-1,2,4-triazol-3-yl]ethyl]-2-(1-cyanocyclopropyl)-6-(trifluoromethyl)pyridine-4-carboxamide]
≥ 80%: percent control (mortality or growth inhibition) at 200 ppm [1] | percent control (mortality or growth inhibition) at 200 ppm [5] | percent control (mortality, anti-feedant or growth inhibition) at 200 ppm [2] | percent control (mortality, anti-feedant or growth inhibition) at 200 ppm [3]
